The test system of one assay is A549. Description: In vitro cell viability combination assay (CellTiter-Glo). Conditions: 72 hr. On the technique in general: In ATP-based viability assays light output follows the ATP content of the culture.
A further assay has as its system NCI-H82 xenograft model. Description: Combination of cisplatin and MLN4924 in NCI-H82 xenograft model. Type of assay: in vivo, mice. Here is the method:
(§1) NCI-H69 or NCI-H82 small cell lung tumor fragments (30- to 40-mg) are implanted into the subcutaneous space in the area of the right flank of NCr nu/nu mice (7-10 weeks, Charles River Laboratories, Inc, Frederick Md. or Wilmington, Mass.) using a 12-gauge trocar.
(§2) Tumors are measured twice weekly using a vernier caliper. Tumor volumes are calculated using standard procedures (0.5×(length×width^2)). […] Tumor size and body weight are measured approximately twice a week for the duration of the study. Mice are euthanized when their tumor volume reached 10% of their body weight, or when the average tumor volume of a treatment or control group reached approximately 2000 mm^3. Tumor growth continued to be monitored after the dosing period in some studies. Average tumor volume is reported as a function of time for selected groups of selected studies in Figures A, B, and C.
(§3) Measurements from day 0 to 18, 21 or 22 are analyzed as specified in Tables 4-9. All tumor volumes have a value of 1 added to them before log10 transformation. For each animal, the log tumor volume at day 0 is subtracted from the log tumor volume on the subsequent days. This difference vs. time is used to calculate an area under the curve (AUC) for each animal using the trapezoid rule. […] The synergy score for the combination of agents A and B is defined as 100*(mean(AUCAB)−mean(AUCA)−mean(AUCB)+mean(AUCctl))/mean(AUCctl): where AUCAB, AUCA, AUCB, and AUCctl are the AUC values for animals in the combination group, the A group, the B group, and the control group, respectively. The standard error of the synergy score is computed based on the variation in the AUC values among the animals. […] If the P-value is above 0.05, then the combination is considered to be additive. If the P-value is below 0.05, and the synergy score is less than zero, then the combination is considered to be synergistic. […] Otherwise, the combination is classified as antagonistic.

Another assay concerns HCT116. Nature of the assay: In vitro cell viability combination assay (CellTiter-Glo). Conditions: 48 hr.
In a further assay the test system is NCI-H209. Described as above. Particulars: agent combined with MLN4924, vehicle DMSO, 96 hr.
In the next assay the test system is NCI-H69 xenograft model. Nature of the assay: Combination of cisplatin and MLN4924 in NCI-H69 xenograft model. Particulars: 4 mg/kg Cisplatin Q4Dx3 IP. Type of assay: in vivo, mice. How it is done:
as §1, §2, §3

The test system of the next assay is NCI-H82. Nature of the assay: In vitro cell viability combination assay (CellTiter-Glo). Conditions: agent combined with MLN4924, vehicle DMSO, 96 hr.
A further assay deals with NCI-H510. Described as above. Conditions: agent combined with MLN4924, vehicle DMSO, 96 hr.
For another assay, the system named is NCI-H69. The assay is described as above. The format is cell-based. Conditions: agent combined with MLN4924, vehicle DMSO, 96 hr. From the text: After normalization, the controls are discarded.
Otherwise, the classification is “Additivity”.

The next assay deals with NCI-H526. The description is as above. Particulars: agent combined with MLN4924, vehicle DMSO, 96 hr.
The subject of assay [1] is NCI-H1650 xenograft model. Description: Combination of docetaxel and MLN4924 in NCI-H1650 xenograft model. The format is in vivo, mice.
Text: NCI-H1650 (2×10^6) tumor cells in RPMI-1640 media are mixed with an equal volume of Matrigel (BD Biosciences) and aseptically injected into the subcutaneous space in the right dorsal flank of Balb/c Nude mice (age 4-6 weeks, Shanghai SINO-British SIPPR/BK Lab Animal Ltd.) using a 25-gauge needle.
(§4) Docetaxel (Henry Schein, Inc., Pittsburgh Pa., Qilu Pharmaceutical Co., Ltd., Jinan, Shandong, China, and Sanofi-Aventis) is formulated in 0.9% saline and administered by intravenous injection (IV) once weekly (QW) at 5 mg/kg or 10 mg/kg.
as §2, §3

The subject of assay [2] is PHTX02B breast xenograft model. Nature of the assay: Combination of docetaxel and MLN4924 in PHTX02B xenograft model. The format is in vivo, mice.
Text: The PHTX02B breast xenograft model was established from a patient-derived tumor collected during surgery from a person with invasive ductal carcinoma classified as triple negative breast cancer (ER−/PR−/Her2−) by IHC. PHTX02B tumor fragments (approximately 2×2×3 mm^3) are implanted into the subcutaneous space in the right dorsal flank of female SCID-NOD mice (age 5-7 weeks, Jackson Laboratory, Bar Harbor, Me.) using a 13-gauge trocar.
as §4, §2, §3

For a further assay, the system named is LU1143 xenograft model. Nature of the assay: Combination of docetaxel or carboplatin and MLN4924 in LU1143 xenograft model. Particulars: 10 mg/kg docetaxel QW IV. Type of assay: in vivo, mice. How it is done: as §4
(§5) Carboplatin (CARBOplatin Injection, Hospira, Inc., Qilu Pharmaceutical Co., Ltd. Jinan, Shandong, China, and Teva Gry-Pharma GmbH, Ulm, Germany) is formulated in 0.9% saline and administered by IP injection once weekly (QW) at 50 mg/kg. The once weekly schedule is also described as every 7 days (Q7D).
as §2
Measurements from day 0 to 18, 21 or 22 are analyzed as specified in Tables 4-9. All tumor volumes have a value of 1 added to them before log10 transformation. For each animal, the log tumor volume at day 0 is subtracted from the log tumor volume on the subsequent days. This difference vs. time is used to calculate an area under the curve (AUC) for each animal using the trapezoid rule. […] The synergy score for the combination of agents A and B is defined as 100*(mean(AUCAB)−mean(AUCA)−mean(AUCB)+mean(AUCctl))/mean(AUCctl): where AUCAB, AUCA, AUCB, and AUCctl are the AUC values for animals in the combination group, the A group, the B group, and the control group, respectively. The standard error of the synergy score is computed based on the variation in the AUC values among the animals. […] If the P-value is above 0.05, then the combination is considered to be additive. […]

The test system of the next assay is LXFE409 xenograft model. Nature of the assay: Combination of docetaxel or carboplatin and MLN4924 in LXFE409 xenograft model. Type of assay: in vivo, mice. Here is the method:
LXFE409 squamous non small cell lung cancer tumor fragments are implanted into the subcutaneous space in the flank of female NMRI nu/nu mice (5-7 weeks, Janvier Labs, Saint Berthevin, France).
as §4, §5, §2, §3

Where [3] appears, read: agent combined with MLN4924, vehicle DMSO.
Setting [4] is: agent combined with MLN4924, vehicle PBS.

Protocol for A549: (§6) General Method: Cells are grown in their respective growth media, supplemented with 10% fetal bovine serum unless otherwise noted. […] A portion of each plate is used for positive controls (no agent is added), while another portion of each plate is used for negative controls (no cells are added). Viability is assessed with CellTiter-Glo® Cell Viability reagent used according to manufacturer's instructions (Promega). Luminescence is measured using a LEADseeker imaging system (GE Healthcare).
(§7) The viability data is normalized separately for each plate by scaling the data so that the median of the negative controls is 0 and the median of the positive controls is 100. More formally,
(§8) [formula] where Vi is the normalized viability of the i^th well, Ui is the raw viability measurement, median (U) is the median of the negative controls, and median (U+) is the median of the positive controls. After normalization, the controls are discarded.
(§9) where E1, E2, E3, E4, I1, I2, I3, S1, S2, S3, and S4 are parameters, CA and CB are the respective concentrations of agents A and B, and V is the normalized viability measurement. It is assumed that the error values are independent and identically distributed normal random variables.
(§10) The Combination Index is computed based on an isobologram, which is a slice of the dose response surface with constant viability. For the present analysis, the 50% isobologram, which is the dose contour that has 50% viability, is used. […] Since the choice of (DA, DB) can be arbitrary, the constraint DA/DB=EC50A/EC50B is used.
(§11) In such cases, Nonlinear Blending can be used as an alternative measure of synergy or additivity. Nonlinear Blending is found by considering a slice of the dose response surface that intersects both concentration axes and runs parallel to the viability axis. Let VA and VB be the viability where the slice intersects the drug A and B axes, respectively. Let Vmax and Vmin be the maximum and minimum viabilities along the slice. Let NLBS=min(VA,VB)−Vmin NLBA=Vmax−max(VA,VB) Define the Nonlinear Blending value to be NLBS if NLBS>NLBA and −NLBA otherwise.
(§12) After completing the analysis of individual plates, the results are combined across the replicates. For a given measure and a set of replicates, the overall mean and standard error are computed using weighted averaging. A null mean, which corresponded to an additive effect, is then compared with the overall mean. The null mean is 1 for the Combination Index and 0 for Nonlinear Blending. Next, a two sized Z-test is performed based on the estimated mean and standard error. This produces a p-value for each measure and each cell line.
(§13) After computing the mean, standard error, and p-value for each set of replicates, these values require interpretation. Thus, a standard procedure is used to produce a classification (synergy, additivity, subadditivity, antagonism, or inconclusive) in each case. If the Combination Index exists for more than half of the replicates, then these measures are used to make the classification.
(§14) Consider the case where the Combination Index is used to make the classification. If the p-value is greater than 0.05, the estimate for the Combination Index is not statistically different from 1. However, if the standard error is also very large, then the estimate is too uncertain to be informative. […] Otherwise, the classification is “Additivity”. When the p-value is less than 0.05, the estimate for the Combination Index is statistically different from 1. However, if the mean is still close to 1, then the difference is not of practical significance. Thus, the result is classified based on the mean. A mean in the range (0.8, 1.2) is considered close enough to 1 to be classified as Additivity. A mean in the range (0, 0.8) is considered low enough to be classified as Synergy. […] The threshold value of 2 can be derived from the definition of the Combination Index.
Protocol for HCT116: as §6, §7, §8, §9, §10, §11, §12, §13, §14
Protocol for NCI-H209: as §6, §7, §8, §9, §10, §11, §12, §13, §14
Protocol for NCI-H510: as §6, §7, §8, §9, §10, §11, §12, §13, §14
Protocol for NCI-H526: as §6, §7, §8, §9, §10, §11, §12, §13, §14

Turning to `N.N.[Cl][Pt][Cl]` [cisplatin], the “Combination Index” value came out at 0.65 ± 0.03 with A549 (setting [3]); 0.75 ± 0.05 in the assay with A549 (setting [4]); 0.76 ± 0.02 with HCT116 (setting [3]); 0.76 ± 0.09 in the assay on HCT116 (setting [4]); 1.28 ± 0.08 in the assay with NCI-H209; 0.81 ± 0.07 in the assay on NCI-H82. Moreover, the “Combination Index” value with NCI-H69 was found to be 1.28 ± 0.2. For the same compound, the “Nonlinear Blending” value was 11 ± 5 with A549 (setting [3]); 10 ± 1 in the assay on A549 (setting [4]); 21 ± 1 in the assay with HCT116 (setting [3]); 14 ± 6 in the assay with HCT116 (setting [4]); −15 ± 3 with NCI-H209; 10 ± 2 in the assay with NCI-H82. For the same compound, the “Nonlinear Blending” value with NCI-H510 is reported as 20 ± 3; with NCI-H69, −7 ± 3. Also, the “average tumor volume day 22” value in the assay with NCI-H82 xenograft model (2 mg/kg cisplatin Q4Dx3 IP) was 628.7 mm^3; in the assay on NCI-H82 xenograft model (4 mg/kg cisplatin Q4Dx3 IP) it was 445.2 mm^3; with NCI-H69 xenograft model it was 213.6 mm^3.
Regarding `CC(=O)O[C@@]12CO[C@@H]1C[C@H](O)[C@@]1(C)C(=O)[C@H](O)C3=C(C)[C@@H](OC(=O)[C@H](O)[C@@H](NC(=O)OC(C)(C)C)c4ccccc4)C[C@@](O)([C@@H](OC(=O)c4ccccc4)[C@H]21)C3(C)C` [docetaxel], the “Combination Index” value was found to be 1.00 ± 0.1 in the assay with A549 (setting [3]); 1.38 ± 0.06 with NCI-H526; 1.01 ± 0.09 in the assay with HCT116 (setting [3]); 1.27 ± 0.09 in the assay with NCI-H209; 1.45 ± 0.09 in the assay on NCI-H82; 1.15 ± 0.08 in the assay with NCI-H510. Further, the “Nonlinear Blending” value was 1 ± 1 in the assay on A549 (setting [3]); −23 ± 3 in the assay on NCI-H526; 7 ± 2 with HCT116 (setting [3]); −16 ± 5 in the assay with NCI-H209; −11 ± 2 in the assay with NCI-H82; −13 ± 4 in the assay with NCI-H510. The “average tumor volume day 21” value in [1] (5 mg/kg docetaxel QW IV) is recorded as 719.2 mm^3; in [1] (10 mg/kg docetaxel QW IV), 282.7 mm^3; in assay [2] (PHTX02B xenograft, 5 mg/kg docetaxel QW IV), 736.3 mm^3; in the assay on LU1143 xenograft model, 498.9 mm^3; in the assay with LXFE409 xenograft model (LXFE409 xenograft, 10 mg/kg docetaxel QW IV) it was 44.6 mm^3. For the same compound, the “tumor growth during the treatment period (in words)” value in assay [2] (PHTX02B breast xenograft, FIG. 1, MLN4924 SC 60 mg/kg BID 5 days on/5 days off, docetaxel 5 mg/kg IV QW, single agents or their combination) is reported as “inhibited tumor growth compared to the control vehicle group”. The “tumor course after the treatment period, to end of study on day 95 (in words)” value with LXFE409 xenograft model (LXFE409 sqNSCLC model, FIG. 4, MLN4924 120 mg/kg SC Q2Dx3/week for 3 weeks, docetaxel 10 mg/kg IV QW for 3 weeks, single agents or combination) was “regrew after the treatment period ended”.
On to `O=C1[O][Pt]2([NH][C@@H]3CCCC[C@H]3[NH]2)[O]C1=O` [oxaliplatin], for which the “Nonlinear Blending” value in the assay with A549 (setting [4]) was 2 ± 2; with NCI-H526, −8 ± 4; with HCT116 (setting [4]), 10 ± 5; in the assay with NCI-H209 it was −5 ± 2; with NCI-H82, 6 ± 2; with NCI-H510 it was 2 ± 3. For the same compound, the “Nonlinear Blending” value in the assay on NCI-H69 is reported as 11 ± 3.
`CC(=O)O[C@H]1C(=O)[C@@]2(C)[C@H]([C@H](OC(=O)c3ccccc3)[C@]3(O)C[C@H](OC(=O)[C@H](O)[C@@H](NC(=O)c4ccccc4)c4ccccc4)C(C)=C1C3(C)C)[C@]1(OC(C)=O)CO[C@@H]1C[C@@H]2O` [paclitaxel]: the “Nonlinear Blending” value is reported as −6 ± 0.9 in the assay on A549 (setting [3]); −26 ± 3 with NCI-H526; −14 ± 2 in the assay on HCT116 (setting [3]); −8 ± 3 in the assay on NCI-H209; −16 ± 2 in the assay on NCI-H82; −22 ± 4 in the assay with NCI-H510. Besides, the “Nonlinear Blending” value in the assay on NCI-H69 was −16 ± 4.
